From BindingDB's records for doi:10.1016/j.bioorg.2015.09.009 (Quaid-I-Azam University, 2015)

Experiments:
[1] = biological target: Acetylcholinesterase (Electrophorus electricus, UniProt O42275); assay: AChE and BChE Inhibitory Activities
[2] = biological target: Carboxylic ester hydrolase (Equus caballus, UniProt Q9N1N9); assay: AChE and BChE Inhibitory Activities
Carboxylic ester hydrolase, sequence (Q9N1N9 whole entry): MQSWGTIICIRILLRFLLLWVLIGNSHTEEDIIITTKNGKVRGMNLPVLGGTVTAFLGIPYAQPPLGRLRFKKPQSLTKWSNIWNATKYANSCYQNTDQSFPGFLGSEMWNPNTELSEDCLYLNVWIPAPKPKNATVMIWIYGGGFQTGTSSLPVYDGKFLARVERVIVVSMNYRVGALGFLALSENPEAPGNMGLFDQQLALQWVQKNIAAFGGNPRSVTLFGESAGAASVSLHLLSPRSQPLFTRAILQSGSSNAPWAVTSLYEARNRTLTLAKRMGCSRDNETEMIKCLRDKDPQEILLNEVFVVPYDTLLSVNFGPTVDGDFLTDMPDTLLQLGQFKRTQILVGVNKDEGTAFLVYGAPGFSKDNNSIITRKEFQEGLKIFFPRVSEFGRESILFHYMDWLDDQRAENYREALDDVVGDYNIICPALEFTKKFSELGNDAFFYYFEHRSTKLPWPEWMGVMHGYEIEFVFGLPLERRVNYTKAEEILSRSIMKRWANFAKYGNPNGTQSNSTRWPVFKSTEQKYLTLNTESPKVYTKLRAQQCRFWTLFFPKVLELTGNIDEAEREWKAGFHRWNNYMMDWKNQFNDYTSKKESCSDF

Acetylcholinesterase, sequence (O42275 whole entry): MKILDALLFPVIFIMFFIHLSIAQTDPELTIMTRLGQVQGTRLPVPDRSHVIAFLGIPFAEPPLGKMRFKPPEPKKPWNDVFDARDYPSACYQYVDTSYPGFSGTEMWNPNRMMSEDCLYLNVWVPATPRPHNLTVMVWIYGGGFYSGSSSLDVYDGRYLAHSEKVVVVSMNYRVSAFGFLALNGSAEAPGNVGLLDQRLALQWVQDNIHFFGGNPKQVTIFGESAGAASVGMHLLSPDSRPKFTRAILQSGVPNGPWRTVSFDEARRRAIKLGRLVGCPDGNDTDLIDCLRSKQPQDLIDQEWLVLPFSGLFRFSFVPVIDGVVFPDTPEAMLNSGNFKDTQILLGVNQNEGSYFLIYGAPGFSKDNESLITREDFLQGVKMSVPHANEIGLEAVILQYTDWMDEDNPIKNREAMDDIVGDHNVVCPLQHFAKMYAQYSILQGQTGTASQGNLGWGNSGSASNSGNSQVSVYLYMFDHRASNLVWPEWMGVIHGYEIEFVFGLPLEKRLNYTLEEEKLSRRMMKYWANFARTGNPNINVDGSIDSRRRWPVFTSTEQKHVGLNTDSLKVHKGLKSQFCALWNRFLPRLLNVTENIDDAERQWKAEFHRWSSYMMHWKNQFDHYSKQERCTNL

| SMILES | IC50 [1] [µM] | IC50 [2] [µM] |
| --- | --- | --- |
| Cc1cccc(NC(=S)NC(=O)c2cc3ccccc3oc2=O)c1 [1-(2-Oxo-2H-chromene-3-carbonyl)-3-(3-methylphenyl)thiourea (2a)] | 0.86 | 2.15 |
| O=C(NC(=S)Nc1ccc(Cl)cc1)c1cc2ccccc2oc1=O [1-(2-Oxo-2H-chromene-3-carbonyl)-3-(4-chlorophenyl)thiourea (2i)] | 5.1 | 42.2 |
| O=C(NC(=S)Nc1cccc(Cl)c1Cl)c1cc2ccccc2oc1=O [1-(2-Oxo-2H-chromene-3-carbonyl)-3-(2,3-dichlorophenyl)thiourea (2d)] | 1.13 | 31.6 |
| O=C(NC(=S)Nc1ccccc1[N+](=O)[O-])c1cc2ccccc2oc1=O [1-(2-Oxo-2H-chromene-3-carbonyl)-3-(2-nitrophenyl)thiourea (2j)] | 0.23 | 26.1 |
| O=C(NC(=S)Nc1ccc(Cl)cc1Cl)c1cc2ccccc2oc1=O [1-(2-Oxo-2H-chromene-3-carbonyl)-3-(2,4-dichlorophenyl)thiourea (2h)] | 6.21 | 13.2 |
| O=C(NC(=S)Nc1cccc(Cl)c1)c1cc2ccccc2oc1=O [1-(2-Oxo-2H-chromene-3-carbonyl)-3-(3-chlorophenyl)thiourea (2e)] | 0.04 | 1.25 |
| O=C(NC(=S)Nc1ccccc1Cl)c1cc2ccccc2oc1=O [1-(2-Oxo-2H-chromene-3-carbonyl)-3-(2-chlorophenyl)thiourea (2g)] | 7.28 | 11.1 |
| O=C(NC(=S)NC1CCCCC1)c1cc2ccccc2oc1=O [1-(2-Oxo-2H-chromene-3-carbonyl)-3-(cyclohexyl)thiourea (2l)] | 6.97 | 12.2 |
| COc1ccccc1NC(=S)NC(=O)c1cc2ccccc2oc1=O [1-(2-Oxo-2H-chromene-3-carbonyl)-3-(2-methoxyphenyl)thiourea (2b)] | 13.3 | 0.06 |
| O=C(NC(=S)Nc1ccc(F)c(Cl)c1)c1cc2ccccc2oc1=O [1-(2-Oxo-2H-chromene-3-carbonyl)-3-(3-chloro-4-fluorophenyl)thiourea (2f)] | 0.75 | 0.84 |
| COc1cccc(NC(=S)NC(=O)c2cc3ccccc3oc2=O)c1 [1-(2-Oxo-2H-chromene-3-carbonyl)-3-(3-methoxyphenyl)thiourea (2k)] | 8.43 | 53.2 |
| O=C(NC(=S)Nc1cccc(F)c1)c1cc2ccccc2oc1=O [1-(2-Oxo-2H-chromene-3-carbonyl)-3-(3-fluorophenyl)thiourea (2c)] | 17.2 | 16.2 |
